Results as given in patent publication US20250388582A1, “NOVEL BICYCLIC HETEROARYL COMPOUND AND USE THEREOF” (ILDONG PHARMACEUTICAL CO., LTD., priority 2022, published 2025).

Biological target: T1, human GST-PIKFYVE (Homo sapiens, UniProt Q9Y2I7)
T1 construct: GST; purchased Carna biosciences 11-118
Experiment: ADP-Glo kinase assay, enzyme inhibition activity against human PIKFYVE (Carna biosciences)
Type: biochemical
Details: inhibitory activity at final compound concentration 10 nM; 1 hour at room temperature
Experimental: The enzyme inhibition activity values for the compounds according to Examples against human PIKFYVE were calculated using the ADP-Glo™ kinase assay service of Carna biosciences, Inc. The enzyme activity evaluation method provided by Carna biosciences Inc., is shown below.
Enzyme inhibition activity was evaluated by reacting the compounds according to Examples with human GST-PIKFYVE (11-118, Carna biosciences), which was purified using glutathione Sepharose chromatography. The reaction buffer used was composed of 50 mmol/L MOPS, 1 mmol/L DTT, and pH 7.2, and all reactions of the test distilled water were performed in the buffer.
Compounds were prepared as solutions in 100% DMSO as 100× stocks and adjusted to have a final sample concentration of 10 nM.
The substrate-enzyme reaction for PIKFYVE was performed by mixing 5 μL human GST-PIKFYVE, 5 μL compounds according to Examples, 5 μL enzyme substrate, and 5 μL purified ATP and reacting for 1 hour at room temperature. After the substrate-enzyme reaction, 20 μL ADP-Glo™ Reagent was added and reacted at room temperature for 40 minutes, then 40 μL Kinase Detection Reagent was added and reacted at room temperature for 40 minutes.
After completion of the reaction, the degree of enzyme activity inhibition was measured by luminescence. The fluorescence of the enzyme activity in the solvent control group […] was set to 100%, and the fluorescence of the enzyme activity in the solvent control group without compound treatment was set to 0%. The inhibitory activity of each compound according to Examples was calculated based on these values.

T1 sequence (Q9Y2I7 whole entry): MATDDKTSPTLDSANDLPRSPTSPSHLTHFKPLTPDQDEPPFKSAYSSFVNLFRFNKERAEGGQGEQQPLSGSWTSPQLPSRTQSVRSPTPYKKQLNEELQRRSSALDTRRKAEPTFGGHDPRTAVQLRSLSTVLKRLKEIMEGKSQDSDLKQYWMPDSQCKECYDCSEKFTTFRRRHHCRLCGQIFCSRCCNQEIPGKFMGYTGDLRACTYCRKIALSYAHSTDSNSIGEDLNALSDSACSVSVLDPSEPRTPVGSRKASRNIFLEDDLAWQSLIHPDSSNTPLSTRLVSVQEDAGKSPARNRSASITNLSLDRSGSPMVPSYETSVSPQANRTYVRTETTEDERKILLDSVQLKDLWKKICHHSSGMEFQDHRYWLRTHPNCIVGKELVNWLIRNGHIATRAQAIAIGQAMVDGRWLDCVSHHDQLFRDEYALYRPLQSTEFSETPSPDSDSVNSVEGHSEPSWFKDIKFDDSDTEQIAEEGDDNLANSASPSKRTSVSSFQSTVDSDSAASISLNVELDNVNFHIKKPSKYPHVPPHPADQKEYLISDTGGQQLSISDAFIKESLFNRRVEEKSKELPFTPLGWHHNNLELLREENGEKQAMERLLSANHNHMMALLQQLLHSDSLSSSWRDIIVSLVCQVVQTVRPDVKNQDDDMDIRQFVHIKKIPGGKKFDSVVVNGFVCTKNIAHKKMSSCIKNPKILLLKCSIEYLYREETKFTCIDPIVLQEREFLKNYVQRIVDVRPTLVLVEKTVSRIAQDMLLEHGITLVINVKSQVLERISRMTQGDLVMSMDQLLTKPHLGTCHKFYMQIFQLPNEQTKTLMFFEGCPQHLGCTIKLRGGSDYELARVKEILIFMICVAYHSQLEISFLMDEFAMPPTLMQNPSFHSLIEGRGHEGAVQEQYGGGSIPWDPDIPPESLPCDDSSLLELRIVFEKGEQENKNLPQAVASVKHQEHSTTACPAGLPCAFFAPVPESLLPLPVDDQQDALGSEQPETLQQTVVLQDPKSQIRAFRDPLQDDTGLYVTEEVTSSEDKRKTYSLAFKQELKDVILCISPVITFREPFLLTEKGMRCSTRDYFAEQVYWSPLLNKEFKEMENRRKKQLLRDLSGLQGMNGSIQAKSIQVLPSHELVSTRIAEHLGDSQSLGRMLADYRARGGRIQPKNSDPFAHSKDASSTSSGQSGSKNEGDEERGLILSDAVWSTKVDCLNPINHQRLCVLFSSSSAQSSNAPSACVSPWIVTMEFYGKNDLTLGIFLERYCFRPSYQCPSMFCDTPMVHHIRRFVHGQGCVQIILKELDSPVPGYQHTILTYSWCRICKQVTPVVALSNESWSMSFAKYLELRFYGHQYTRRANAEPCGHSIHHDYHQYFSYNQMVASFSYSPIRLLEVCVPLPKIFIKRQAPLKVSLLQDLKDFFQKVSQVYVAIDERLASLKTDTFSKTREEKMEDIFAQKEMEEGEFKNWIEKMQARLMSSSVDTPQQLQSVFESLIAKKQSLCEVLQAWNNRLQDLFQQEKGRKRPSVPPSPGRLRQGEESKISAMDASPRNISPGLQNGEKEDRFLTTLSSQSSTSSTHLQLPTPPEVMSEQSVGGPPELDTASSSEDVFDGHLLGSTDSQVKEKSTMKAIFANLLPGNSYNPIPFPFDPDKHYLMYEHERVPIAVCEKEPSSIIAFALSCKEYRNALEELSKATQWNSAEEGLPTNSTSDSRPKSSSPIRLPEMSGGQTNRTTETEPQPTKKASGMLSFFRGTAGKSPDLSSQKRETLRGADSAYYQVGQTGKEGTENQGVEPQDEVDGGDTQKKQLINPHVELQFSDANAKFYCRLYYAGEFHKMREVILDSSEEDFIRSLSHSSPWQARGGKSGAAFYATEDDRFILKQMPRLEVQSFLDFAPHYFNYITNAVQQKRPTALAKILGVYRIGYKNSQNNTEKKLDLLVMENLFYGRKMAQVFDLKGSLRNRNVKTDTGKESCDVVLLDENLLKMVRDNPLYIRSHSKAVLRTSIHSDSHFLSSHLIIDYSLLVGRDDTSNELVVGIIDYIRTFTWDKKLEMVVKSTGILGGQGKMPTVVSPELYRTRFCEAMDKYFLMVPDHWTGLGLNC

How did the “ADP-Glo kinase assay (%, 10 nM)” value turn out when `Cc1cccc(/C=N/Nc2nc(N3CCOCC3)nc3c(-c4ccccc4)cn(C)c23)c1` [Example 9, (E)-4-(5-methyl-4-(2-(3-methylbenzylidene)hydrazinyl)-7-phenyl-5H-pyrrolo[3,2-d]pyrimidin-2-yl)morpholine] was run?
Its value is 51.47%.

`Cc1cccc(/C=N/Nc2nc(N3CCOCC3)nc3c2cnn3-c2cccnc2)c1` [Example 13, (E)-4-(4-(2-(3-methylbenzylidene)hydrazinyl)-1-(pyridin-3-yl)-1H-pyrazolo[3,4-d]pyrimidin-6-yl)morpholine] was tested. Which “ADP-Glo kinase assay (%, 10 nM)” value did it give?
The value was 51.68%.

For `Cc1cccc(/C=N/Nc2nc(N3CCOCC3)nc3c2cnn3-c2ccncc2)c1` [Example 16, (E)-4-(4-(2-(3-methylbenzylidene)hydrazinyl)-1-(pyridin-4-yl)-1H-pyrazolo[3,4-d]pyrimidin-6-yl)morpholine], which “ADP-Glo kinase assay (%, 10 nM)” value is on record?
The value was 63.02%.

For `Cc1cccc(/C=N/Nc2nc(N3CCOCC3)nc3c2ncn3CC(=O)C2CC2)c1` [Example 19, (E)-1-cyclopropyl-2-(6-(2-(3-methylbenzylidene)hydrazinyl)-2-morpholino-9H-purin-9-yl)ethan-1-one], which “ADP-Glo kinase assay (%, 10 nM)” value is on record?
Its value is 58.67%.

For `Cc1cccc(/C=N/Nc2nc(N3CCOCC3)nc3c2ncn3CC(=O)N2CCc3ccccc32)c1` [Example 29, (E)-1-(indolin-1-yl)-2-(6-(2-(3-methylbenzylidene)hydrazinyl)-2-morpholino-9H-purin-9-yl)ethan-1-one], which “ADP-Glo kinase assay (%, 10 nM)” value is on record?
Its value is 55.15%.

`COc1cccc(C(=O)Cn2cnc3c(N/N=C/c4cccc(C)c4)nc(N4CCOCC4)nc32)c1` [Example 38, (E)-1-(3-methoxyphenyl)-2-(6-(2-(3-methylbenzylidene)hydrazinyl)-2-morpholino-9H-purin-9-yl)ethan-1-one] was tested. Which “ADP-Glo kinase assay (%, 10 nM)” value did it give?
Its value is 82.96%.

`Cc1cccc(/C=N/Nc2nc(N3CCOCC3)nc3c2ncn3CC(=O)c2ccc(F)cc2)c1` [Example 47, (E)-1-(4-fluorophenyl)-2-(6-(2-(3-methylbenzylidene)hydrazinyl)-2-morpholino-9H-purin-9-yl)ethan-1-one] was tested. Which “ADP-Glo kinase assay (%, 10 nM)” value did it give?
The value was 60.82%.

`Cc1cccc(/C=N/Nc2nc(N3CCOCC3)nc3c2ncn3CC(=O)c2cccc(OC(F)(F)F)c2)c1` [Example 50, (E)-2-(6-(2-(3-methylbenzylidene)hydrazinyl)-2-morpholino-9H-purin-9-yl)-1-(3-(trifluoromethoxy)phenyl)ethan-1-one] was tested. Which “ADP-Glo kinase assay (%, 10 nM)” value did it give?
Its value is 54.37%.

How did the “ADP-Glo kinase assay (%, 10 nM)” value turn out when `Cc1cccc(/C=N/Nc2nc(N3CCOCC3)nc3c2ncn3CC(=O)c2ccc(N3CCOCC3)cc2N2CCOCC2)c1` [Example 51, (E)-1-(2,4-dimorpholinophenyl)-2-(6-(2-(3-methylbenzylidene)hydrazinyl)-2-morpholino-9H-purin-9-yl)ethan-1-one] was run?
Its value is 66.19%.

How did the “ADP-Glo kinase assay (%, 10 nM)” value turn out when `Cc1cccc(/C=N/Nc2nc(N3CCOCC3)nc3c2ncn3CC(=O)c2cnccn2)c1` [Example 54, (E)-2-(6-(2-(3-methylbenzylidene)hydrazinyl)-2-morpholino-9H-purin-9-yl)-1-(pyrazin-2-yl)ethan-1-one] was run?
Its value is 58.10%.

With `COc1cccc(-c2ccn(-c3nc(N4CCOCC4)nc4c3ncn4CC(=O)c3ccccn3)n2)c1` [Example 68, 2-(6-(3-(3-methoxyphenyl)-1H-pyrazol-1-yl)-2-morpholino-9H-purin-9-yl)-1-(pyridin-2-yl)ethan-1-one] as the compound, how does the “ADP-Glo kinase assay (%, 10 nM)” value read?
Its value is 56.03%.

Which “ADP-Glo kinase assay (%, 10 nM)” value does the source give for `Cc1cccc(/C=N/Nc2nc(N3CCOCC3)nc3c2ncn3C2CN(C(=O)c3ccccc3)C2)c1` [Example 81, (E)-(3-(6-(2-(3-methylbenzylidene)hydrazinyl)-2-morpholino-9H-purin-9-yl)azetidin-1-yl)(phenyl)methanone] here?
Its value is 60.34%.

Which “ADP-Glo kinase assay (%, 10 nM)” value does the source give for `Cc1cccc(/C=N/Nc2nc(N3CCOCC3)nc3c2ncn3C2CN(C(=O)c3cccnc3)C2)c1` [Example 82, (E)-3-(6-(2-(3-methylbenzylidene)hydrazinyl)-2-morpholino-9H-purin-9-yl)azetidin-1-yl (pyridin-3-yl)methanone] here?
The value was 60.95%.

For `COC(=O)N1CC(n2cnc3c(N/N=C/c4cccc(C)c4)nc(N4CCOCC4)nc32)C1` [Example 83, methyl (E)-3-(6-(2-(3-methylbenzylidene)hydrazinyl)-2-morpholino-9H-purin-9-yl)azetidine-1-carboxylate], which “ADP-Glo kinase assay (%, 10 nM)” value is on record?
Its value is 63.61%.

How did the “ADP-Glo kinase assay (%, 10 nM)” value turn out when `Cc1cccc(/C=N/Nc2nc(N3CCOCC3)nc3c2ncn3C2CCN(C(=O)c3ccccn3)CC2)c1` [Example 94, (E)-(4-(6-(2-(3-methylbenzylidene)hydrazinyl)-2-morpholino-9H-purin-9-yl)piperidin-1-yl)(pyridin-2-yl)methanone] was run?
The value was 58.50%.

For `Cc1cccc(/C=N/Nc2nc(N3C[C@H]4C[C@@H]3CO4)nc3c2ncn3-c2cccnc2)c1` [Example 98, (1R,4R)-5-(6-(2-(3-methylbenzylidene)hydrazinyl)-9-(pyridin-3-yl)-9H-purin-2-yl)-oxa-5-azabicyclo[2.2.1]heptane], which “ADP-Glo kinase assay (%, 10 nM)” value is on record?
The value was 91.62%.

`Cc1cccc(/C=N/Nc2nc(N3CCOCC3)nc3c2ncn3-c2nccs2)c1` [Example 117, (E)-4-(6-(2-(3-methylbenzylidene)hydrazinyl)-9-(thiazol-2-yl)-9H-purin-2-yl)morpholine] was tested. Which “ADP-Glo kinase assay (%, 10 nM)” value did it give?
Its value is 67.79%.

`Cc1cccc(/C=N/Nc2nc(N3CCOCC3)nc3c2ncn3-c2cccc(C(F)(F)F)c2)c1` [Example 130, (E)-4-(6-(2-(3-methylbenzylidene)hydrazinyl)-9-(3-(trifluoromethyl)phenyl)-9H-purin-2-yl)morpholine] was tested. Which “ADP-Glo kinase assay (%, 10 nM)” value did it give?
Its value is 69.14%.

With `COc1ccc(-n2cnc3c(-n4ccc(-c5cccc(C)c5)n4)nc(N4CCOCC4)nc32)cc1` [Example 134, 4-(9-(4-methoxyphenyl)-6-(3-(m-tolyl)-1H-pyrazol-1-yl)-9H-purin-2-yl)morpholine] as the compound, how does the “ADP-Glo kinase assay (%, 10 nM)” value read?
Its value is 59.84%.

With `Cc1cccc(-c2ccn(-c3nc(N4CCOCC4)nc4c3ncn4-c3cccc(Cl)c3)n2)c1` [Example 135, 4-(9-(3-chlorophenyl)-6-(3-(m-tolyl)-1H-pyrazol-1-yl)-9H-purin-2-yl)morpholine] as the compound, how does the “ADP-Glo kinase assay (%, 10 nM)” value read?
The value was 51.18%.

How did the “ADP-Glo kinase assay (%, 10 nM)” value turn out when `Cc1cccc(-c2ccn(-c3nc(N4CCOCC4)nc4c3ncn4-c3cccc(OC4CC4)c3)n2)c1` [Example 138, 4-(9-(3-cyclopropoxyphenyl)-6-(3-(m-tolyl)-1H-pyrazol-1-yl)-9H-purin-2-yl)morpholine] was run?
Its value is 64.23%.

`Cc1cccc(/C=N/Nc2nc(N3CCOCC3)nc3c2ncn3-c2ncccc2C)c1` [Example 142, (E)-4-(6-(2-(3-methylbenzylidene)hydrazinyl)-9-(3-methylpyridin-2-yl)-9H-purin-2-yl)morpholine] was tested. Which “ADP-Glo kinase assay (%, 10 nM)” value did it give?
Its value is 68.43%.

With `Cc1cccc(/C=N/Nc2nc(N3CCOCC3)nc3c2nc(C)n3-c2cc(C)n(C)n2)c1` [Example 153, (E)-4-(9-(1,5-dimethyl-1H-pyrazol-3-yl)-8-methyl-6-(2-(3-methylbenzylidene)hydrazinyl)-9H-purin-2-yl)morpholine] as the compound, how does the “ADP-Glo kinase assay (%, 10 nM)” value read?
Its value is 63.58%.

For `Cc1cccc(/C=N/Nc2nc(N3CCOCC3)nc3c2nc(C)n3CC(=O)c2ccccc2)c1` [Example 156, (E)-2-(8-methyl-6-(2-(3-methylbenzylidene)hydrazinyl)-2-morpholino-9H-purin-9-yl)-1-phenylethan-1-one], which “ADP-Glo kinase assay (%, 10 nM)” value is on record?
Its value is 65.90%.

How did the “ADP-Glo kinase assay (%, 10 nM)” value turn out when `Cc1cccc(/C=N/Nc2nc(N3CCOCC3)nc3c2nc(C)n3CC(=O)c2cccnc2)c1` [Example 158, (E)-2-(8-methyl-6-(2-(3-methylbenzylidene)hydrazinyl)-2-morpholino-9H-purin-9-yl)-1-(pyridin-3-yl)ethan-1-one] was run?
The value was 63.93%.

With `Cc1cccc(/C=N/Nc2nc(N3CCOCC3)nc3c2nc(C)n3CC(=O)c2ccncc2)c1` [Example 159, (E)-2-(8-methyl-6-(2-(3-methylbenzylidene)hydrazinyl)-2-morpholino-9H-purin-9-yl)-1-(pyridin-4-yl)ethan-1-one] as the compound, how does the “ADP-Glo kinase assay (%, 10 nM)” value read?
Its value is 65.33%.

Which “ADP-Glo kinase assay (%, 10 nM)” value does the source give for `COc1cccc(-n2c(C)nc3c(N/N=C/c4cccc(C)c4)nc(N4CCOCC4)nc32)c1` [Example 160, (E)-4-(9-(3-methoxyphenyl)-8-methyl-6-(2-(3-methylbenzylidene)hydrazinyl)-9H-purin-2-yl)morpholine] here?
The value was 77.75%.

How did the “ADP-Glo kinase assay (%, 10 nM)” value turn out when `COc1ccc(-n2c(C)nc3c(N/N=C/c4cccc(C)c4)nc(N4CCOCC4)nc32)cc1` [Example 161, (E)-4-(9-(4-methoxyphenyl)-8-methyl-6-(2-(3-methylbenzylidene)hydrazinyl)-9H-purin-2-yl)morpholine] was run?
The value was 79.72%.

How did the “ADP-Glo kinase assay (%, 10 nM)” value turn out when `Cc1cccc(/C=N/Nc2nc(N3CCOCC3)nc3c2nc(C)n3-c2cccc(F)c2)c1` [Example 162, (E)-4-(9-(3-fluorophenyl)-8-methyl-6-(2-(3-methylbenzylidene)hydrazinyl)-9H-purin-2-yl)morpholine] was run?
The value was 78.79%.
